Here are results for one compound from patent publication US20210251218A1, “BIO-HERBICIDE BASED ON ESSENTIAL OIL” (Université de Liège, priority 2018, published 2021).

The subject of the experiment is Bryophyte (adult stage). In words: Essay 1: post-emergence activity on Bryophyte. The class given is in vivo. To be noted: spraying 100 ml/m^2; 7 days after treatment; score 0 = healthy plant, 6 = dead plant; FIG. 3. The protocol: In order to assess the post-emergence activity of compositions according to the invention on Bryophyte (adult stage), different compositions according to the invention (HE1 and HE2—see Table 3) were tested by spraying (100 ml/m^2) on Bryophytes (adult stage). Pelargonic acid at a concentration of 30 g/L (PA) (Compo®) was used as a positive control and a composition without the active substance (essential oil) (SSA) was also tested. [table] For Bryophytes, it is recognized that the score of 0 represents a healthy and undamaged plant while a score of 6 represents a dead plant. These scores were determined 7 days after treatment with the different compositions.

For `CCCCCCCCC(=O)O` [pelargonic acid], the toxicity score was determined as 6.
